Source: PubChem BioAssay AID488836 (Broad Institute, 2010)
Inconclusive results are not listed. The source made the active and inactive calls. The rule behind the calls is not given here.

tested on: C. albicans CaCi-2 growth with fluconazole, Alamar Blue, 48 h; assay: PubChem AID 488836; settings: not given

| SMILES | AC50 |
| --- | --- |
| CC1CCN(C(=O)Cn2c3ccc(F)cc3c3nc4n(c(=O)c32)CCCS4)CC1 | 3540 nM |
| O=C(c1ccc(Cl)cc1)N1CCN(c2ccnc3cc(Cl)ccc23)CC1 | 651 nM |
| O=c1c2[nH]c3ccc(F)cc3c2nc2n1CCS2 | 4080 nM |
| COc1ccc(NC(=O)Cn2c3ccccc3c3nc4n(c(=O)c32)CCS4)cc1 | 4100 nM |
| CCN(CC)C(=O)Cn1c2ccccc2c2nc3n(c(=O)c21)CCS3 | 2280 nM |
| O=C(Nc1ccc(C(F)(F)F)cc1)N1CCN(c2ccnc3cc(Cl)ccc23)CC1 | 1810 nM |
| O=C(c1ccc(Cl)cc1)N1CCN(c2ccc(Cl)cc2)CC1 | 6130 nM |
| O=C(c1ccccc1)N1CCN(c2ccnc3cc(Cl)ccc23)CC1 | 3350 nM |
| COC(=O)Cn1nc(-c2ccc(C)cc2)c2ccccc21 | 103 nM |
| CC1CCN(C(=O)Cn2c3ccccc3c3nc4n(c(=O)c32)CCS4)CC1 | 2940 nM |
| O=C(Cn1c2ccccc2c2nc3n(c(=O)c21)CCS3)N1CCCC1 | 2300 nM |
| O=C(c1ccc(Cl)c(Cl)c1)N1CCN(c2ccnc3cc(Cl)ccc23)CC1 | 1020 nM |
| O=C(c1csc2ccccc12)N1CCN(c2ccnc3cc(Cl)ccc23)CC1 | 1680 nM |
| O=C(c1cccs1)N1CCN(c2ccnc3cc(Cl)ccc23)CC1 | 2720 nM |
| Cc1ccc(C(=O)N2CCN(c3ccnc4cc(Cl)ccc34)CC2)cc1 | 2330 nM |
| COC(=O)Cn1nc(-c2ccccc2)c2ccccc21 | 1260 nM |
| CC1CCN(C(=O)Cn2c3ccccc3c3nc4n(c(=O)c32)CCCS4)CC1 | > 6000 nM (inactive) |

tested on: not listed separately; assay: PubChem AID 488836; settings: C. albicans CaCi-2 growth with fluconazole, Alamar Blue, 48 h; at 0.6 µM (top of the series)

| SMILES | activity change, negative = inhibition |
| --- | --- |
| COc1ccc2c(c1)c1nc3n(c(=O)c1n2CC(=O)N1CCC(C)CC1)CCS3 | 13.2% (inactive) |

same assay, conditions: C. albicans CaCi-2 (fluconazole-resistant clinical isolate) growth with fluconazole, Alamar Blue, 48 h; at 6 µM (top of the series)

| SMILES | activity change, negative = inhibition |
| --- | --- |
| O=C(O)c1nn(Cc2ccc(Cl)cc2)c2ccccc12 | -11.2% (inactive) |
| CCOC(=O)c1nn(Cc2ccc(Cl)cc2)c2ccccc12 | -6.26% (inactive) |
| O=C(Cn1nc(-c2ccccc2)c2ccccc21)NCc1ccc(Cl)cc1 | -18.4% (inactive) |
| O=c1c2[nH]c3ccccc3c2nc2n1CCS2 | -39.9% (inactive) |
| COC(=O)Cn1nc(C)c2ccccc21 | -0.315% (inactive) |
| O=C(Cn1nc(-c2ccccc2)c2ccccc21)N1CCc2ccccc2C1 | -26.7% (inactive) |
| COc1ccc(OC)c2c(C)cc(N3CCN(C(=O)c4ccc(Cl)cc4)CC3)nc12 | -2.61% (inactive) |
| O=C(Cn1c2ccccc2c2nc3n(c(=O)c21)CCCS3)c1ccc(F)cc1 | -14.2% (inactive) |
| c1ccc(-c2n[nH]c3ccccc23)cc1 | 4.54% (inactive) |
| O=C(O)c1c2ccccc2nn1Cc1ccc(Cl)cc1 | -8.46% (inactive) |
| COc1ccc2c(c1)c1nc3n(c(=O)c1n2CC(=O)N1CCC(Cc2ccccc2)CC1)CCS3 | -7.32% (inactive) |
| O=C(Cn1c2ccccc2c2nc3n(c(=O)c21)CCS3)NCCc1ccc(Cl)cc1 | -13.4% (inactive) |
| O=S(=O)(c1ccc(Cl)cc1)N1CCN(c2ccnc3cc(Cl)ccc23)CC1 | -15.5% (inactive) |
| CCOC(=O)c1c2ccccc2nn1Cc1ccc(Cl)cc1 | -7.34% (inactive) |
| Cc1nn(S(C)(=O)=O)c2ccccc12 | -21% (inactive) |
| O=C(c1ccc(Cl)cc1)N1CCN(c2cc(C(F)(F)F)nc3ccccc23)CC1 | -20% (inactive) |
| O=C(Cn1nc(-c2ccccc2)c2cc(Cl)ccc21)N1CCOCC1 | -5.03% (inactive) |
| O=C(Cn1nc(C(=O)N2CCCCC2)c2ccccc21)N1CCOCC1 | -5.52% (inactive) |
| CCCNC(=O)Cn1nc(-c2ccccc2)c2ccccc21 | 12.1% (inactive) |
| CCCNC(=O)Cn1nc(-c2ccccc2)c2cc(Cl)ccc21 | 38.1% (inactive) |
| COC(=O)Cn1nc(-c2ccc(Cl)cc2)c2ccccc21 | -11% (inactive) |
